According to the supplement of paper PMC9938120:

What was measured:
Assay in all cases: drug sensitivity score (DSS3, normalised partial AUC of % inhibition dose-response) (DSS (score)); higher = more sensitive (stronger inhibition of viability); extreme values may be limits of the assay
[1] = test system: FMOC04 (patient-derived high-grade serous ovarian cancer cells); conditions: 72 h; library: FO5A; assay format: 2D, 384-well, CellTiter-Glo
Method in brief: (§1)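 Patient-derived ovarian cancer cells (early passage, under 10) were dispensed onto 384-well flat clear-bottom plates pre-plated with compounds at five concentrations covering a 10,000-fold range. Plates were incubated 72 h at 37 °C, 5% CO2, and viability was read with CellTiter-Glo. Data were processed in Breeze. The drug sensitivity score (DSS3) is a partial area under the percent-inhibition dose-response curve, divided by the log of the upper asymptote; higher means more sensitive.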

[2] = test system: FMOC11 (patient-derived high-grade serous ovarian cancer cells); conditions: 72 h; library: FO5A; assay format: 2D, 384-well, CellTiter-Glo
Method in brief: as §1

[3] = test system: FMOC09 (patient-derived high-grade serous ovarian cancer cells); conditions: 72 h; library: FO5A; assay format: 2D, 384-well, CellTiter-Glo
Method in brief: as §1

[4] = test system: FMOC02_3 (patient-derived low-grade serous ovarian cancer cells); conditions: 72 h; library: FO5A; assay format: 2D, 384-well, CellTiter-Glo
Method in brief: as §1

[5] = test system: FMOC06 (patient-derived mucinous ovarian cancer cells); conditions: 72 h; library: FO5A; assay format: 2D, 384-well, CellTiter-Glo
Method in brief: as §1

[6] = test system: FMOC17 (patient-derived low-grade serous ovarian cancer cells); conditions: 72 h; library: FO5A; assay format: 2D, 384-well, CellTiter-Glo
Method in brief: as §1

[7] = test system: FMOC02_2 (patient-derived low-grade serous ovarian cancer cells); conditions: 72 h; library: FO5A; assay format: 2D, 384-well, CellTiter-Glo
Method in brief: as §1

[8] = test system: FMOC24 (patient-derived high-grade serous ovarian cancer cells); conditions: 72 h; library: FO5A; assay format: 2D, 384-well, CellTiter-Glo
Method in brief: as §1

[9] = test system: FMOC02_1 (patient-derived low-grade serous ovarian cancer cells); conditions: 72 h; library: FO5A; assay format: 2D, 384-well, CellTiter-Glo
Method in brief: as §1

[10] = test system: FMOC03 (patient-derived mucinous ovarian cancer cells); conditions: 72 h; library: FO5A; assay format: 2D, 384-well, CellTiter-Glo
Method in brief: as §1

[11] = test system: FMOC14 (patient-derived high-grade serous ovarian cancer cells); conditions: 72 h; library: FO5A; assay format: 2D, 384-well, CellTiter-Glo
Method in brief: as §1

[12] = test system: FMOC25_1 (patient-derived low-grade serous ovarian cancer cells); conditions: 72 h; library: FO4B; assay format: 2D, 384-well, CellTiter-Glo
Method in brief: as §1

[13] = test system: FMOC28 (patient-derived low-grade serous ovarian cancer cells); conditions: 72 h; library: FO5A; assay format: 2D, 384-well, CellTiter-Glo
Method in brief: as §1

[14] = test system: FMOC22 (patient-derived mucinous ovarian cancer cells); conditions: 72 h; library: FO5A; assay format: 2D, 384-well, CellTiter-Glo
Method in brief: as §1

[15] = test system: FMOC25_2 (patient-derived low-grade serous ovarian cancer cells); conditions: 72 h; library: FO5A; assay format: 2D, 384-well, CellTiter-Glo
Method in brief: as §1

[16] = test system: FMOC27 (patient-derived low-grade serous ovarian cancer cells); conditions: 72 h; library: FO5A; assay format: 2D, 384-well, CellTiter-Glo
Method in brief: as §1

CC(C)C[C@H](NC(=O)[C@@H](COC(C)(C)C)NC(=O)[C@H](Cc1ccc(O)cc1)NC(=O)[C@H](CO)NC(=O)[C@H](Cc1c[nH]c2ccccc12)NC(=O)[C@H](Cc1cnc[nH]1)NC(=O)[C@@H]1CCC(=O)N1)C(=O)N[C@@H](CCCNC(=N)N)C(=O)N1CCC[C@H]1C(=O)NNC(N)=O [Goserelin]
drug sensitivity score [1]: 0
drug sensitivity score [2]: 0
drug sensitivity score [3]: 0
drug sensitivity score [4]: 0
drug sensitivity score [5]: 0
drug sensitivity score [6]: 0
drug sensitivity score [7]: 0
drug sensitivity score [8]: 0
drug sensitivity score [9]: 0
drug sensitivity score [10]: 0
drug sensitivity score [11]: 0
drug sensitivity score [12]: 0
drug sensitivity score [13]: 0
drug sensitivity score [14]: 0
drug sensitivity score [15]: 0
drug sensitivity score [16]: 0

O=S(=O)(c1cccc2c(O)nccc12)N1CCCNCC1 [Hydroxyfasudil]
drug sensitivity score [1]: 0
drug sensitivity score [2]: 0
drug sensitivity score [3]: 0
drug sensitivity score [4]: 0
drug sensitivity score [5]: 0
drug sensitivity score [6]: 0
drug sensitivity score [7]: 0
drug sensitivity score [8]: 1.25
drug sensitivity score [9]: 0
drug sensitivity score [10]: 0
drug sensitivity score [11]: 0
drug sensitivity score [12]: 0
drug sensitivity score [13]: 0
drug sensitivity score [14]: 0
drug sensitivity score [15]: 0
drug sensitivity score [16]: 0

NC(=O)NO [Hydroxyurea]
drug sensitivity score [1]: 0.8
drug sensitivity score [2]: 2.9
drug sensitivity score [3]: 0.9
drug sensitivity score [4]: 4.8
drug sensitivity score [5]: 1.9
drug sensitivity score [6]: 1.1
drug sensitivity score [7]: 1.3
drug sensitivity score [8]: 1.05
drug sensitivity score [9]: 5.2
drug sensitivity score [10]: 0.7
drug sensitivity score [11]: 0
drug sensitivity score [12]: 0.5
drug sensitivity score [13]: 0.9
drug sensitivity score [14]: 0.7
drug sensitivity score [15]: 3.9
drug sensitivity score [16]: 1.6

O=C(O)c1ccc(O)c2ncccc12 [IOX-1]
drug sensitivity score [1]: 0
drug sensitivity score [2]: 1.6
drug sensitivity score [3]: 0
drug sensitivity score [4]: 0
drug sensitivity score [5]: 1
drug sensitivity score [6]: 0
drug sensitivity score [7]: 0.2
drug sensitivity score [8]: 0
drug sensitivity score [9]: 0
drug sensitivity score [10]: 3
drug sensitivity score [11]: 1.9
drug sensitivity score [12]: 0
drug sensitivity score [13]: 0
drug sensitivity score [14]: 1.6
drug sensitivity score [15]: 0
drug sensitivity score [16]: 0

O=C(O)CNC(=O)c1c(O)c2ccccc2n(Cc2ccccc2)c1=O [IOX-2]
drug sensitivity score [1]: 0
drug sensitivity score [2]: 0
drug sensitivity score [3]: 0
drug sensitivity score [4]: 0
drug sensitivity score [5]: 0
drug sensitivity score [6]: 0
drug sensitivity score [7]: 0.5
drug sensitivity score [8]: 1.75
drug sensitivity score [9]: 0.5
drug sensitivity score [10]: 0
drug sensitivity score [11]: 0
drug sensitivity score [12]: 0
drug sensitivity score [13]: 3.2
drug sensitivity score [14]: 0
drug sensitivity score [15]: 0.9
drug sensitivity score [16]: 0

CC[C@H](Nc1ncnc2[nH]cnc12)c1nc2cccc(F)c2c(=O)n1-c1ccccc1 [Idelalisib]
drug sensitivity score [1]: 0.1
drug sensitivity score [2]: 1.9
drug sensitivity score [3]: 2
drug sensitivity score [4]: 3.7
drug sensitivity score [5]: 2.7
drug sensitivity score [6]: 2.8
drug sensitivity score [7]: 2.4
drug sensitivity score [8]: 0
drug sensitivity score [9]: 2.3
drug sensitivity score [10]: 0.4
drug sensitivity score [11]: 0
drug sensitivity score [12]: 1.4
drug sensitivity score [13]: 3.3
drug sensitivity score [14]: 0.1
drug sensitivity score [15]: 1.1
drug sensitivity score [16]: 0.4

Cc1ccc(NC(=O)c2ccc(CN3CCN(C)CC3)cc2)cc1Nc1nccc(-c2cccnc2)n1 [Imatinib]
drug sensitivity score [1]: 0
drug sensitivity score [2]: 0
drug sensitivity score [3]: 0
drug sensitivity score [4]: 1.6
drug sensitivity score [5]: 0
drug sensitivity score [6]: 0
drug sensitivity score [7]: 1.2
drug sensitivity score [8]: 2.75
drug sensitivity score [9]: 0.3
drug sensitivity score [10]: 0.4
drug sensitivity score [11]: 2
drug sensitivity score [12]: 0.3
drug sensitivity score [13]: 0
drug sensitivity score [14]: 0
drug sensitivity score [15]: 0.1
drug sensitivity score [16]: 0

CC(C)Cn1cnc2c(N)nc3ccccc3c21 [Imiquimod]
drug sensitivity score [1]: 0
drug sensitivity score [2]: 0
drug sensitivity score [3]: 0
drug sensitivity score [4]: 0
drug sensitivity score [5]: 0.5
drug sensitivity score [6]: 0
drug sensitivity score [7]: 0
drug sensitivity score [8]: 0
drug sensitivity score [9]: 0
drug sensitivity score [10]: 0
drug sensitivity score [11]: 0
drug sensitivity score [12]: 0
drug sensitivity score [13]: 0.9
drug sensitivity score [14]: 0
drug sensitivity score [15]: 0
drug sensitivity score [16]: 0

CCC(C)n1ncn(-c2ccc(N3CCN(c4ccc(OCC5COC(Cn6cncn6)(c6ccc(Cl)cc6Cl)O5)cc4)CC3)cc2)c1=O (stereo unspecified) [Itraconazole]
drug sensitivity score [1]: 0.1
drug sensitivity score [2]: 1.2
drug sensitivity score [3]: 0.8
drug sensitivity score [4]: 6.6
drug sensitivity score [5]: 0.7
drug sensitivity score [6]: 4.8
drug sensitivity score [7]: 3
drug sensitivity score [8]: 4.9
drug sensitivity score [9]: 5.3
drug sensitivity score [10]: 4.5
drug sensitivity score [11]: 1.3
drug sensitivity score [12]: 4
drug sensitivity score [13]: 4.4
drug sensitivity score [14]: 0.2
drug sensitivity score [15]: 4.6
drug sensitivity score [16]: 0.6

C/C(=C\c1csc(C)n1)[C@@H]1C[C@@H]2O[C@]2(C)CCC[C@H](C)[C@H](O)[C@@H](C)C(=O)C(C)(C)[C@@H](O)CC(=O)N1 [Ixabepilone]
drug sensitivity score [1]: 1.85
drug sensitivity score [2]: 3.1
drug sensitivity score [3]: 1.7
drug sensitivity score [4]: 2.6
drug sensitivity score [5]: 2.7
drug sensitivity score [6]: 4.4
drug sensitivity score [7]: 1.7
drug sensitivity score [8]: 0
drug sensitivity score [9]: 4.1
drug sensitivity score [10]: 3
drug sensitivity score [11]: 0
drug sensitivity score [12]: 1.1
drug sensitivity score [13]: 0
drug sensitivity score [14]: 2.3
drug sensitivity score [15]: 2.5
drug sensitivity score [16]: 0.9

CS(=O)(=O)CCNCc1ccc(-c2ccc3ncnc(Nc4ccc(OCc5cccc(F)c5)c(Cl)c4)c3c2)o1 [Lapatinib]
drug sensitivity score [1]: 0
drug sensitivity score [2]: 3.3
drug sensitivity score [3]: 2.9
drug sensitivity score [4]: 4.6
drug sensitivity score [5]: 1
drug sensitivity score [6]: 3
drug sensitivity score [7]: 6.9
drug sensitivity score [8]: 0.05
drug sensitivity score [9]: 5.4
drug sensitivity score [10]: 5.3
drug sensitivity score [11]: 0.5
drug sensitivity score [12]: 3.6
drug sensitivity score [13]: 4
drug sensitivity score [14]: 0
drug sensitivity score [15]: 3.7
drug sensitivity score [16]: 4.3
